Experimental findings from ChEMBL document CHEMBL1201862, “PubChem BioAssay data set” (2004) are described below.

Among the test systems are A549; ACHN; EKVX; HCC 2998; Hs-578T; KM12; M14; MDA-MB-231; MOLT-4; NCI-H226; OVCAR-5; OVCAR-8; RXF 393; SK-MEL-28; SK-MEL-2; SN12C; SNB-75; UO-31; CAKI-1.
Holding throughout (assay): growth of human tumour cells (NCI), 48 h

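Results reflect a 48-hour exposure of cells in 96-well plates to compound at five concentrations. GI50: concentration for 50% inhibition of growth.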 Active and inactive are the calls of the source. No stated cut-off is given here; in the data, active = GI50 up to about 1.1 µM and inactive = higher. Bounds are passed on as bounds.

As for `COc1cc2cc(C(=O)N3CC(COS(C)(=O)=O)c4ccc(O)cc43)[nH]c2c(OC)c1OC` (centres undefined), the GI50 in the assay with A549 was < 0.0001 µM (active); in the assay on ACHN, < 0.0001 µM (active); in the assay on EKVX, 0.00082 µM (active); in the assay with HCC 2998, < 0.0001 µM (active); in the assay with Hs-578T, 0.000168 µM (active); in the assay on KM12, 0.000169 µM (active). Also, the GI50 with M14 was < 0.0001 µM (active); in the assay with MDA-MB-231 it was < 0.0001 µM (active); in the assay on MOLT-4 it was < 0.0001 µM (active); in the assay with NCI-H226 it was 0.000109 µM (active); with OVCAR-5, 0.000536 µM (active); in the assay on OVCAR-8 it was < 0.0001 µM (active). For the same compound, the GI50 was < 0.0001 µM (active) in the assay with RXF 393; < 0.0001 µM (active) in the assay with SK-MEL-28; < 0.0001 µM (active) in the assay with SK-MEL-2; < 0.0001 µM (active) with SN12C; 0.000172 µM (active) in the assay on SNB-75; < 0.0001 µM (active) with UO-31.
Turning to `COCc1c(CO)cnc(C)c1OC1OC(CO)C(O)C(O)C1O` (centres undefined), the GI50 with A549, in the assay on ACHN, with CAKI-1, with EKVX, with HCC 2998 and in the assay with KM12 was > 100 µM (inactive) each time. Further, the GI50 in the assay with M14, with MOLT-4, in the assay with NCI-H226, in the assay with OVCAR-5, in the assay with OVCAR-8 and in the assay with RXF 393 was > 100 µM (inactive) each time. For the same compound, the GI50 with SK-MEL-28, in the assay on SK-MEL-2, in the assay with SN12C, with SNB-75 and in the assay on UO-31 was > 100 µM (inactive) in each case.
As to `COc1ccc2cccc(C(=N)c3ccc(C)c4c3CCC4)c2c1`, the GI50 in the assay on A549 is 13.7 µM (inactive); in the assay on ACHN, 9.98 µM (inactive); with CAKI-1, 3.95 µM (inactive); in the assay on EKVX, 15.5 µM (inactive); in the assay on HCC 2998, 10.8 µM (inactive); with KM12, 10.2 µM (inactive). Moreover, the GI50 in the assay with M14 is 5.97 µM (inactive); in the assay on MOLT-4, 8.63 µM (inactive); in the assay with NCI-H226, 12.2 µM (inactive); in the assay with OVCAR-5, 6.17 µM (inactive); in the assay on OVCAR-8, 11.4 µM (inactive); with RXF 393, 12.8 µM (inactive). Moreover, the GI50 in the assay with SK-MEL-28 is 13 µM (inactive); with SK-MEL-2, 11.9 µM (inactive); with SN12C, 12 µM (inactive); in the assay with SNB-75 it was 11.8 µM (inactive); in the assay with UO-31, 4.45 µM (inactive).
Turning to `Nc1nc(OCc2ccccc2)c2nc[nH]c2n1` [6-O-BENZYLGUANINE], the GI50 was 73.8 µM (inactive) with A549; 47.4 µM (inactive) with ACHN; 23.1 µM (inactive) in the assay with CAKI-1; 99.5 µM (inactive) in the assay with EKVX; 148 µM (inactive) in the assay with HCC 2998; 98.6 µM (inactive) with KM12. Further, the GI50 was 75.9 µM (inactive) in the assay on M14; 67.6 µM (inactive) in the assay with MOLT-4; 47.5 µM (inactive) in the assay with NCI-H226; 80 µM (inactive) with OVCAR-5; 112 µM (inactive) with OVCAR-8; 32.5 µM (inactive) with RXF 393. Further, the GI50 in the assay with SK-MEL-28 is 140 µM (inactive); in the assay on SK-MEL-2, 68.9 µM (inactive); in the assay on SN12C, 90.4 µM (inactive); in the assay with SNB-75, 24.8 µM (inactive); with UO-31, 25.9 µM (inactive).
